# Patent EP4534610A1, “FLUOROPHORE COMPOUNDS AND PRODUCTION THEREOF” (Université Fribourg, priority 2023, dated 2025)
# Values joined by “and” are separate entries in the source; they are usually repeats but may differ in a detail not shown here. Equal values may be shown once.
# Assays:
# [1] = Photostability: UV-visible spectra of 5µM solutions after continuous irradiation with 400 nm light (Xenon-arc lamp, 300 Watt); type: physicochemical; details: for stability of the absorbance under irradiation: up to 24h
# Method: To examine the stability of the absorbance of PyPeBr and PyPe, 5µM solution (2.5 mL) of the respective compounds were prepared using different solvents. The compounds were then irradiated with 400nm using a Xenon-arc lamp at 300 Watt (25 nm FWHM). Following predefined irradiation periods, indicated in Figures 6A to 6H, UV-visible spectra were collected to monitor the stability of PyPeBr and PyPe in different solvents.
# [2] = Light-induced E/Z isomerisation and photostationary state (X-ray of Zn complex, NMR, UV-Vis); type: physicochemical; details: similar irradiation conditions, NMR and UV-visible experiments
# Source text: Evidence of the efficient photostationary state of PyPe, was provided by exposing a coordination metal complex of E-PyPe with Zn^2+, [Zn(E-PyPe)2Cl2]·2DCM, comprising two PyPe. X-Ray analysis confirmed that prior to irradiation both PyPe in the complex were primarily in E-configuration when coordinated to the Zn^2+ metal centre.
# This experiment provided evidence that the light-induced E/Z-configurational change in PyPe reaches a photostationary equilibrium of E/Z-PyPe.
# This was achieved by reacting allyl bromide at 40 °C in Acetonitril (MeCN) as described below to produce PyPeBr.
# [3] = tested on: melanoma OVA-B16 cells line; assay: MTT cytotoxicity assay; type: cell-based
# Method: To this end, cytotoxicity tests using the MTT assay, a standard colorimetric assay for assessing cell metabolic activity known to the person skilled in the art, on melanoma OVA-B16 cells line were performed. […] Cell growth of OVA-16 cells was unaffected after 1h and 24h of exposure of PyPeBr at this concentration.
# [4] = Photoluminescence emission spectra in different solvents; type: physicochemical
# Method: The photo-physical properties of these dye molecules with stilbene-like motifs were investigated in different solvents in order to determine their maximum absorption and emission wavelengths (Figures 6A to 6C). The compounds were dissolved in Acetonitrile (CH3CN), chloroform (CHCl3), c-hexane (c-HEX), dichloromethane (DCM), dimethylformamide (DMF), methanol (MeOH), tetrahydrofuran (THF), and toluene (Tol).
# The highest emission intensity was detected when THF and c-Hex were used as solvents, with lesser intensity recorded for DMF and Tol. PyPe emits light in the blue range, with emission peaks between 380nm and 550nm. Absolute intensities of up to 3.5 x 10^6 were recorded for PyPe in c-Hex.
# The photoluminescence spectra of PyPeBr upon excitation at 440nm when dissolved in CH3CN, CHCl3, DCM, DMF, MeOH, or Tol, and upon excitation at 370 nm when dissolved in c-Hex or THF is shown in Figure 4B. PyPeBr has a relatively broad emission spectrum, which depends on the solvent used. The emission spectrum of PyPeBr can be as broad to cover most of the visible range. This broad emission range offers the possibility to select a desired wavelength for imaging by applying appropriate filters.
# PyPh emits light in the blue range, ranging from 400nm to 500nm. […] The loss in stability is due to the self-photobleaching reactions, which are induced by irradiation.
# (§1) ^1H-NMR was recorded on 400 MHz (Brucker DRX 400) and ^13C-NMR spectra were recorded on Bruker 100 MHz spectrometer at room temperature with d6-DMSO as a solvent and tetramethylsilane (TMS) as the internal standard. Mass spectra were performed on the Bruker-ION Trap Ms. Fluorescence spectra were measured on an Edinburgh Instruments FS5 Spectrofluorometer. Absorption spectra were determined on a Perkin Elmer UV/VIS Lambda 2 (190-1100 nm) spectrophotometer. IR spectra were recorded on a Perking Elmer FT-IR spectrometer Frontier 4000-400 cm^-1. Single crystal structures were obtained from a STOE-IPDS II (Single crystal diffractometer λ-Mo), solved and refined using SHELXT software package.
# HEK/OVA-B16 cells = assay: Staining and fluorescence imaging of living cells; type: cell-based; details: for staining pattern in cells: HEK/OVA-B16 cells; for uptake by living cells: dyes applied for up to 1 hour at 10µM; for fluorescence emission spectrum in situ, peak: excited at 405 nm
# [5] = Optical properties in different solvents: emission and absorption maxima, lifetime, quantum yield; type: physicochemical; details: for Lifetime, τavr.: multiexponential lifetime represented with τavr.; for Φf: quantum yield determined using integrating sphere
# Method: as §1
compound,measurement,setting,value
"C=CC[n+]1ccc(/C=C/c2ccc3ccc4cccc5ccc2c3c45)cc1.[Br-] [PyPeBr, (E)-1-allyl-4-(2-(pyren-1-yl)vinyl)pyridinium bromide]",stability of the absorbance under irradiation,[1]; 5µM in MeOH,only a minor decrease in absorbance after 15 minutes of irradiation but no further significant increase over a 24h irradiation period
same,capacity to absorb light ranging from 370 nm to 500 nm under irradiation,"[1]; 5µM in ultra-pure water (MilliQ purification), 24h",remained substantially unchanged over a 24h irradiation period
same,rate of E/Z-isomerization,[2],substantially faster than in PyPe
same,deterioration in cell activity,[3]; 50 µM in cell buffered water or water/buffer/DMSO mixtures,minor or non-visible signs of deterioration in cell activity
same,cell growth,"[3]; 50 µM, after 1h and 24h of exposure",unaffected
same,highest emission intensity,"[4]; dissolved in DMF, excitation at 440nm",over 8.5 x 10^6
same,emission peaks,"[4]; very broad emission range, listed as General Formula P1.1",405 nm and 465 nm and 565 nm
same,solubility in water,Solubility,highly soluble in water
same,morphological signs of cell toxicity,HEK/OVA-B16 cells; 10µM,cytosol structure changes were observed
same,morphological signs of cell toxicity,HEK/OVA-B16 cells; 50µM,cells became round and started to detach
same,staining pattern in cells,HEK/OVA-B16 cells,stained the cytoplasm
same,uptake by living cells,HEK/OVA-B16 cells,readily taken up
same,"fluorescence emission spectrum in situ, peak",HEK/OVA-B16 cells,565 nm
same,Knr,[5]; solvent CH3CN,3.15 10^8 s^-1
same,kr,[5]; solvent CH3CN,1.05 10^8 s^-1
same,λ^em max,"[5]; solvent CH3CN, Table 2, excitation not given",621 nm
same,"Lifetime, τavr.",[5]; solvent CH3CN,2.38 ns
same,Φf,[5]; solvent CH3CN,0.25
same,Knr,[5]; solvent CHCl3,0.06 10^8 s^-1
same,kr,[5]; solvent CHCl3,6.27 10^8 s^-1
same,λ^em max,"[5]; solvent CHCl3, Table 2, excitation not given",609 nm
same,"Lifetime, τavr.",[5]; solvent CHCl3,1.58 ns
same,Φf,[5]; solvent CHCl3,0.99
same,Knr,[5]; solvent DCM,1.87 10^8 s^-1
same,kr,[5]; solvent DCM,0.36 10^8 s^-1
same,λ^abs max,[5]; solvent DCM,492 nm
same,λ^em max,"[5]; solvent DCM, Table 2, excitation not given",622 nm
same,"Lifetime, τavr.",[5]; solvent DCM,4.5 ns
same,Φf,[5]; solvent DCM,0.16
same,Knr,[5]; solvent DMF,1.79 10^8 s^-1
same,kr,[5]; solvent DMF,2.18 10^8 s^-1
same,"Lifetime, τavr.",[5]; solvent DMF,2.52 ns
same,Φf,[5]; solvent DMF,0.55
same,Knr,[5]; solvent MeOH,1.33 10^8 s^-1
same,kr,[5]; solvent MeOH,3.79 10^8 s^-1
same,λ^em max,"[5]; solvent MeOH, Table 2, excitation not given",614 nm
same,"Lifetime, τavr.",[5]; solvent MeOH,1.95 ns
same,Φf,[5]; solvent MeOH,0.74
same,Knr,[5]; solvent THF,3.08 10^8 s^-1
same,kr,[5]; solvent THF,0.06 10^8 s^-1
same,λ^abs max,[5]; solvent THF,447 nm
same,λ^em max,"[5]; solvent THF, Table 2, excitation not given",617 nm
same,"Lifetime, τavr.",[5]; solvent THF,3.18 ns
same,Φf,[5]; solvent THF,0.02
same,Knr,[5]; solvent Toluene,4.21 10^8 s^-1
same,kr,[5]; solvent Toluene,0.04 10^8 s^-1
same,λ^abs max,[5]; solvent Toluene,455 nm
same,λ^em max,"[5]; solvent Toluene, Table 2, excitation not given",606 nm
same,"Lifetime, τavr.",[5]; solvent Toluene,2.35 ns
same,Φf,[5]; solvent Toluene,0.01
same,Knr,[5]; solvent c-Hex,4.69 10^8 s^-1
same,kr,[5]; solvent c-Hex,0.10 10^8 s^-1
same,λ^abs max,[5]; solvent c-Hex,370 nm
same,"Lifetime, τavr.",[5]; solvent c-Hex,2.09 ns
same,Φf,[5]; solvent c-Hex,0.02
"C(=C\c1ccc2ccc3cccc4ccc1c2c34)/c1ccncc1 [PyPe, (E)-4-(2-(pyren-1-yl)vinyl)pyridine, reference compound]",stability of the absorbance under irradiation,[1]; 5µM in DCM,an early bleaching effect could be detected within the first 15 minutes of irradiation
same,stability of the absorbance under irradiation,[1]; 5µM in MeOH,an early bleaching effect could be detected within the first 15 minutes of irradiation
same,absolute emission intensities,"[4]; in c-Hex, excitation at 370nm",up to 3.5 x 10^6
same,morphological signs of cell toxicity,HEK/OVA-B16 cells; 10µM,No morphological signs of cell toxicity
same,staining pattern in cells,HEK/OVA-B16 cells,cytosolic staining and subcellular partitioning
same,uptake by living cells,HEK/OVA-B16 cells,readily taken up
same,"fluorescence emission spectrum in situ, peak",HEK/OVA-B16 cells,465 nm
same,Knr,[5]; solvent CH3CN,0.38 10^8 s^-1
same,kr,[5]; solvent CH3CN,4.44 10^8 s^-1
same,"Lifetime, τavr.",[5]; solvent CH3CN,2.07 ns
same,Φf,[5]; solvent CH3CN,0.92
same,λ^em max,"[5]; solvent CH3CN, λex = 405 nm",616 nm
same,Knr,[5]; solvent CHCl3,0.66 10^8 s^-1
same,kr,[5]; solvent CHCl3,5.44 10^8 s^-1
same,"Lifetime, τavr.",[5]; solvent CHCl3,1.65 ns
same,Φf,[5]; solvent CHCl3,0.89
same,λ^em max,"[5]; solvent CHCl3, λex = 405 nm",607 nm
same,Knr,[5]; solvent DCM,2.38 10^8 s^-1
same,kr,[5]; solvent DCM,3.43 10^8 s^-1
same,"Lifetime, τavr.",[5]; solvent DCM,1.72 ns
same,Φf,[5]; solvent DCM,0.59
same,λ^em max,"[5]; solvent DCM, λex = 405 nm",623 nm
same,Knr,[5]; solvent DMF,0.26 10^8 s^-1
same,kr,[5]; solvent DMF,2.60 10^8 s^-1
same,"Lifetime, τavr.",[5]; solvent DMF,3.5 ns
same,Φf,[5]; solvent DMF,0.91
same,Knr,[5]; solvent MeOH,0.65 10^8 s^-1
same,kr,[5]; solvent MeOH,3.19 10^8 s^-1
same,"Lifetime, τavr.",[5]; solvent MeOH,2.6 ns
same,Φf,[5]; solvent MeOH,0.83
same,λ^em max,"[5]; solvent MeOH, λex = 405 nm",611 nm
same,Knr,[5]; solvent THF,2.17 10^8 s^-1
same,kr,[5]; solvent THF,2.26 10^8 s^-1
same,"Lifetime, τavr.",[5]; solvent THF,2.26 ns
same,Φf,[5]; solvent THF,0.51
same,λ^em max,"[5]; solvent THF, λex = 405 nm",613 nm
same,Knr,[5]; solvent Toluene,0.53 10^8 s^-1
same,kr,[5]; solvent Toluene,3.91 10^8 s^-1
same,"Lifetime, τavr.",[5]; solvent Toluene,2.25 ns
same,Φf,[5]; solvent Toluene,0.88
same,λ^em max,"[5]; solvent Toluene, λex = 405 nm",603 nm
same,Knr,[5]; solvent c-Hex,0.47 10^8 s^-1
same,kr,[5]; solvent c-Hex,0.84 10^8 s^-1
same,"Lifetime, τavr.",[5]; solvent c-Hex,7.58 ns
same,Φf,[5]; solvent c-Hex,0.64
